Assay results published in patent US9604987B2, “Synthesis of autophagy inducing compound and the uses thereof” (Hong Kong Baptist University, priority 2012, dated 2017).

Tests used:
[1] = tested on: L3 Drosophila larvae fat body; assay: LysoTracker Red staining of Drosophila L3 larvae fat body; assay type: in vivo
Description: Drosophila culture and drug feeding. Flies were raised at 25° C. on standard corn meal medium supplemented with dry yeast. Cory B and rapamycin were initially dissolved in DMSO then diluted in water to desired concentrations. The drug containing water was added into instant Drosophila food and mixed thoroughly. As the control, the same amount of DMSO was also mixed with instant Drosophila food. For the treatment, L3 larvae or adult flies were transferred to the drug-containing medium and incubated for indicated time.
Lysotracker staining and quantitative analysis of autophagic structures. L3 larvae were dissected using fine forceps under a dissecting microscope and inverted so that fat bodies were exposed to the incubating solution. The larvae carcasses were stained with 100 nM of LysoTracker red in PBS for 5 minutes at room temperature. After the incubation, the larvae carcasses were rinsed once in PBS and transferred to a glass slide with a drop of mounting medium on it. […] Fat body lobes were then covered with a cover slide and immediately observed under a standard fluorescence microscope. Quantitative analysis of lysotracker-positive spots was performed according to previous described protocol with minor revision. […] The numbers of lysotracker-positive spots were quantified from at least 20 randomly selected fluorescent image fields (4700 μm^2/field). […]

[2] = tested on: N2a Swedish APP cells; assay: APP reduction in N2a Swedish APP cells (western blot); assay type: cell-based, mouse; conditions: different concentrations, with or without CQ and 3MA
Description: N2a Swedish APP cells are incubated with different concentration of Cory and Cory B in the presence or absence of CQ and 3MA. […] Tg2567 APP mice, 3 months old JNPL P301 Tau mice and WT mice intraperitoneally are administrated with 20 mg/kg/d CoryB.

[3] = tested on: mouse primary cortical neurons; assay: Autophagy in primary mouse cortical neurons (LC3-II blot, GFP-LC3 puncta); assay type: cell-based, E17 embryonic ICR mice; conditions: 24 hours
Description: Primary neuron culture. The E17 embryonic pup brains were dissected and cortices were placed in a Petri dish containing ice cold EBSS, with meninges carefully removed. Tissues were digested in 5 ml of digestion solution (EBSS containing 0.5 mM EDTA (E6758, Sigma), 0.5 mg/ml Papain (3120, Worthington Biochem) and 4 mg/ml L-Cysteine (C7880, Sigma)) at 37° C. for 15 minutes. The tissue was sucked out in 1 ml of digestion solution and mixed with 3 ml of digestion inhibition solution (EBSS containing 5 mg/ml BSA (A2153, Sigma), 5 mg/ml Trypsin inhibitor (T9253, Sigma) and 10 μg/ml DNase (DN25, Sigma)). The mixed tissue solution was thoroughly mixed to dissociate the cells and then transferred to a 50 ml tube through a 70 μm filter. The cells were collected by centrifugation and re-suspended in seeding medium (DMEM containing 10% FBS and 10% horse serum). […]
To further confirm the pro-autophagic effect of Cory B on primary neurons, mouse primary cortical neurons isolated from E17 embryonic ICR mice are used in this study. […] Neurons are fixed in 4% paraformaldehyde and analyzed under a confocal microscope. GFP-LC3 puncta number in each GFP positive neuron is counted and at least 20 neurons in each group is counted. […]

[4] = tested on: N2a cells; assay: Tandem fluorescent mRFP-GFP-LC3 (Tf-LC3) autophagosome maturation in N2a cells; assay type: cell-based, mouse; conditions: 25 μM, 24 hours
From the text: Therefore, red-only puncta indicates the normal maturation of the autolysosomes. In contrast, co-localization of GFP and RFP puncta indicates impaired fusion between autophagosomes and lysosomes or disruption of lysosome function. Here, this system is utilized and establishes a pattern of GFP and mRFP fluorescence changes in N2a cells after Cory B treatment. Cells are fixed in 4% paraformaldehyde and analyzed under a confocal microscope. […] However, the number of GFP puncta is much lower as compared to mRFP puncta, indicating efficient autophagosome-lysosome maturation and degradation. In cells treated with CQ, there is similar accumulation of GFP and mRFP puncta due to lysosome inhibition. In cells treated with both CQ and Cory B, the number of GFP and mRFP puncta are even more than in the CQ-alone group, but GFP and mRFP puncta numbers are very similar (FIG. 2E, F). The observations further confirm that enhancement of GFP- and RFP-LC3-II puncta expression by Cory B are achieved via autophagy induction flux in neuronal cells rather than inhibiting lysosomal degradation of LC3-II. Results were presented as means±SEM of one representative experiment from three independent repeats (**p<0.01 compare the difference between GFP and RFP puncta in each group, two-way ANOVA for multiple comparison and Bonferroni test as post hoc test).

[5] = tested on: Inducible PC12 cells; assay: HMGB1 translocation and autophagy in alpha-synuclein inducible PC12 cells; assay type: cell-based, rat; conditions: α-syn overexpression induced by Dox, 24 h
Description: Inducible PC12 cells are treated with […] Dox for 24 h in the presence of Corynoxine B (Cory B), rapamycin (Rap), wortmannin (Wort) or chloroquine (CQ). The expressions of induced HA-α-syn, endogenous LC3-II and Beclin-1 are determined by Western blotting (FIG. 10A). The expression of HMGB1 in the cytosolic and nuclear fractions are determined by Western blotting (FIG. 10B). b-actin and Lamin B1 are used as relative loading controls. Data are presented as the mean±SD from three independent experiments. ^#p<0.05 vs. un-induced control; *p<0.05 vs. Dox treatment; **p<0.05 vs. Dox+Cory B treatment.

For `CC[C@@H]1CN2CC[C@]3(C(=O)Nc4ccccc43)C2C[C@@H]1C(=COC)C(=O)OC` (some centres unmarked) [Cory B, Corynoxine B], the “LysoTracker Red-positive puncta in fat bodies” value ([1]; fed 0.2 mg/ml, 6 hours) was “induces formation of LysoTracker Red-positive puncta”, the “LysoTracker Red puncta formation in presence of 3-MA” value ([1]; with autophagy inhibitor 3-MA) was “blocked” and the “full length and CTF APP” value [2] was “dose-dependently reduce both full length and CTF APP”. The LC3-II level ([3]; 0-50 μM) was “dose-dependent increase of LC3-II”, the “GFP puncta in neurons transfected with GFP-LC3 construct” value ([3]; 50 μM) was “induces massive formation of GFP puncta” and the “GFP and mRFP puncta formation (Tf-LC3)” value [4] was “induces massive GFP and mRFP puncta formation”. For the same compound, the “number of GFP puncta compared to mRFP puncta” value [4] was “much lower” and the “cytosolic translocation of HMGB1 and autophagy” value [5] was “restored the deficient cytosolic translocation of HMGB1 and autophagy”.
